This is an account of results in patent US6927228B2, “Biaromatic compound activators of PPARγ-type receptors” (Galderma Research & Development, S.N.C., priority 2000, dated 2005).

Marks after values point to notes of the source that are not given here.

Experiment [1] addresses T1, PPARγ receptors (Homo sapiens, UniProt P37231).
T1 sequence (P37231 1-505): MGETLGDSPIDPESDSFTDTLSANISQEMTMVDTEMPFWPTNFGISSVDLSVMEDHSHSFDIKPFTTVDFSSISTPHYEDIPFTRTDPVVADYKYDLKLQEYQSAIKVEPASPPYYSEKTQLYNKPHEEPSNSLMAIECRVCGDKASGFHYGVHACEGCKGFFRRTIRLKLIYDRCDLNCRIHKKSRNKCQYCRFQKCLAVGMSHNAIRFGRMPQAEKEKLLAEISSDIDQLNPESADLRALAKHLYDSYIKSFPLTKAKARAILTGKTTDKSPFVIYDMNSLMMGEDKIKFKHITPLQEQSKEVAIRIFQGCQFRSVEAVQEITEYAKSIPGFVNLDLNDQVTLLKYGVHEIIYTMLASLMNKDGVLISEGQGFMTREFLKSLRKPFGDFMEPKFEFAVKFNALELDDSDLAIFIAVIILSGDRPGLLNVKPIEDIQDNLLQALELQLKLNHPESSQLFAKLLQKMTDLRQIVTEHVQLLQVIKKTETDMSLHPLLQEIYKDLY
Briefly: PPARγ binding test, competition with tritiated BRL 49,653. The conditions noted are these: hydroxyapatite gel, receptor from Sf9 insect cells, read-out: Binding of PPAR-γ Kd. More on the design: made in house; host or cells: Sf9 insect cells (recombinant baculovirus). On the procedure:
The technique of adsorption on hydroxyapatite gel was used to separate the receptor-bound ligand from the free ligand. The human PPARγ receptor was prepared from Sf9 insect cells infected with a recombinant baculovirus. The results are expressed as a Kd value (nM) which represents the equilibrium dissociation constant obtained for each compound.
(§1) The agonist activity of the compounds according to the invention towards PPARγ receptors may be evaluated by binding tests and transactivation tests.

For experiment [2], the target named is T1, PPARγ receptors. In words: PPARγ transactivation test. In kind it is cell-based. Details: expressed in transfected cells. The conditions noted are these: concentration of 1 μM, relative to SB 219994 = 100%.
From the text: as §1

A further experiment concerns the target T2, PPARα receptors (Homo sapiens, UniProt Q07869).
T2 construct: expressed in transfected cells
T2 sequence (Q07869 1-468): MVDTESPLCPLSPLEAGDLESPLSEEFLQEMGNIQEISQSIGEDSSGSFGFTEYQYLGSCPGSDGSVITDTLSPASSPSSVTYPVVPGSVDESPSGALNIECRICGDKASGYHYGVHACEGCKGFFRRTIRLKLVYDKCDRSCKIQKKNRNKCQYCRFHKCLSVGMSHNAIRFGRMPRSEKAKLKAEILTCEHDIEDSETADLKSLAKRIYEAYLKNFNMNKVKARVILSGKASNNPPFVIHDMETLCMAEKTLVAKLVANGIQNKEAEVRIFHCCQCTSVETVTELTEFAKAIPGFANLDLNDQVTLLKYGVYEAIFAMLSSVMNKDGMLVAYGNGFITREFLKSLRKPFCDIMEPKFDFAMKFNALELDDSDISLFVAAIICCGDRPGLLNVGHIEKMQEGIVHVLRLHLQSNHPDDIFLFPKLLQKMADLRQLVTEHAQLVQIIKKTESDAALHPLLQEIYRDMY
Briefly: PPARα transactivation test. In kind it is cell-based. The conditions noted are these: concentration of 1 μM, relative to Wy 14643 = 100%.
From the text: [Worded in the source for another target; this target is reported under the same test.] as §1

For orientation: Kd means the equilibrium constant for the complex coming apart. Consider `CN(Cc1cccc(-c2ccc(CC3SC(=O)NC3=O)cc2)c1)C(=O)c1ccccc1` (stereo not shown) [Example 1, N-[4′-(2,4-Dioxothiazolidin-5-ylmethyl)biphenyl-3-ylmethyl]-N-methylbenzamide], for which the Kd at PPARγ receptors [1] amounted to 55 nM. Also, the values for the activation at 1 µM on PPARγ receptors [2] and on PPARα receptors were 102% and 8.2%, respectively.
The like results for `CN(Cc1cccc(-c2ccc(CC3SC(=O)NC3=O)cc2)c1)c1ccccn1` (stereo not shown) [Example 2, 5-{3′-[(Methylpyrid-2-ylamino)methyl]biphenyl-4-ylmethyl}thiazolidine-2,4-dione] were, in that order, 263 nM, 42.9% and 8.2%.
For the molecule `CN(Cc1cccc(-c2ccc(CC3SC(=O)NC3=O)cc2)c1)C(=O)Nc1ccccc1` (stereo not shown) [Example 10, 1-[4′-(2,4-Dioxothiazolidin-5-ylmethyl)biphenyl-3-ylmethyl]-1-methyl-3-phenylurea], the Kd at PPARγ receptors [1] was 800 nM. Further, the activation at 1 µM turned out to be 22.1% on PPARγ receptors [2] and 0% at PPARα receptors.
On to `CN(Cc1cccc(-c2ccc(CC3SC(=O)NC3=O)cc2)c1)C(=O)OC(C)(C)C` (stereo not shown) [Example 11, tert-Butyl [4′-(2,4-dioxothiazolidin-5-ylmethyl)biphenyl-3-ylmethyl]methylcarbamate], for which the Kd at PPARγ receptors [1] was found to be 289 nM. Further, the activation at 1 µM was 74.5% at PPARγ receptors [2] and 2.4% at PPARα receptors.
The like results for `CCCCCCCCC(=O)N(C)Cc1cccc(-c2ccc(CC3SC(=O)NC3=O)cc2)c1` (stereo not shown) [Example 12, N-[4′[2,4-dioxothiazolidin-5-ylmethyl)biphenyl-3-ylmethyl]-N-methylnonanamide] were, in that order, 7 nM, 60.4% and 0%.
As to `CCO[C@@H](Cc1ccc(-c2cccc(CN(C)C(=O)c3ccccc3)c2)cc1)C(=O)O` [Example 13, (S)-2-Ethoxy-3-(3′-{[methyl-(1-phenylmethanoyl)-amino]methyl}biphenyl-4-yl)propionic acid], on PPARγ receptors [1], the Kd turned out to be 24 nM. For the same molecule, the activation at 1 µM on PPARγ receptors [2] worked out at 70.2%; on PPARα receptors, 0%.
In the same order, the values of `CN(Cc1cccc(-c2ccc(CC3SC(=O)NC3=O)cc2)c1)C(=O)OCC1c2ccccc2-c2ccccc21` (stereo not shown) [Example 21, 9H-Fluoren-9-ylmethyl [4′-(2,4-dioxothiazolidin-5-ylmethyl)biphenyl-3-ylmethyl]methylcarbamate] are 190 nM, 90% and 14.9%.
The like results for `CN(Cc1cccc(-c2ccc(CC3SC(=O)NC3=O)cc2)c1)C(=O)C(C)(C)C` (stereo not shown) [Example 22, N-[4′-(2,4-Dioxothiazolidin-5-ylmethyl)biphenyl-3-ylmethyl]-2,2,N-trimethylpropionamide] were, in that order, 76.6 nM, 95.3% and 7.5%.
The like results for `CN(Cc1cccc(-c2ccc(CC3SC(=O)NC3=O)cc2)c1)C(=O)CCc1ccccc1` (stereo not shown) [Example 24, N-[4′-(2,4-Dioxothiazolidin-5-ylmethyl)biphenyl-3-ylmethyl]-N-methyl-3-phenylpropionamide] were, in that order, 72.3 nM, 95% and 8.7%.
In the case of `CCCN(Cc1cccc(-c2ccc(C=C3SC(=O)NC3=O)cc2)c1)C(=O)c1ccccc1` [Example 26, N-[4′-(2,4-Dioxothiazolidin-5-ylidenemethyl)-biphenyl-3-ylmethyl]-N-propylbenzamide], the activation at 1 µM is 88.6% on PPARγ receptors [2] and 2.1% on PPARα receptors.
The like results for `CCOc1ccc(C(=O)N(C)Cc2cccc(-c3ccc(CC4SC(=O)NC4=O)cc3)c2)cc1OCC` (stereo not shown) [Example 28, N-[4′-(2,4-Dioxothiazolidin-5-ylmethyl)biphenyl-3-ylmethyl]-3,4-diethoxy-N-methylbenzamide] were, in that order, 79.8% and 1.1%.
The like results for `CN(Cc1ccccc1)C(=O)c1cccc(-c2ccc(CC3SC(=O)NC3=O)cc2)c1` (stereo not shown) [Example 30, N-Benzyl-N-methyl-4′-(2,4-dioxothiazolidin-5-ylmethyl)biphenyl-3-carboxamide] were, in that order, 80.3% and 8.9%.
In the same order, the values of `CCCCCCCCCC(=O)N(C)Cc1cccc(-c2ccc(CC3SC(=O)NC3=O)cc2)c1` (stereo not shown) [Example 32, N-[4′-(2,4-Dioxothiazolidin-5-ylmethyl)biphenyl-3-ylmethyl]-N-methyldecanamide] are 74.9% and 0%.
For `CCCCCCCC(=O)N(C)Cc1cccc(-c2ccc(CC3SC(=O)NC3=O)cc2)c1` (stereo not shown) [Example 34, N-[4′-(2,4-Dioxothiazolidin-5-ylmethyl)biphenyl-3-ylmethyl]-N-methyloctanamide], the Kd at PPARγ receptors [1] was 2 nM. Also, the activation at 1 µM at PPARγ receptors [2] was 102%; on PPARα receptors, 17.6%.
`CCCCCCC(=O)N(C)Cc1cccc(-c2ccc(CC3SC(=O)NC3=O)cc2)c1` (stereo not shown) [Example 35, N-[4′-(2,4-Dioxothiazolidin-5-ylmethyl)biphenyl-3-ylmethyl]-N-methylheptanamide]: the activation at 1 µM on PPARγ receptors [2] came out at 56%; on PPARα receptors it was 11%.
In the case of `Cc1cccc(Nc2cc(Cl)nc(SCC(=O)O)n2)c1C` [Reference 1: Wy 14643, reference compound], the “% of activation of PPARα” value at PPARα receptors was 100* %.
As for `CN(CCOc1ccc(C[C@H](OCC(F)(F)F)C(=O)O)cc1)c1nc2ccccc2o1` [Reference 2: SB 219994, reference compound], the Kd at PPARγ receptors [1] worked out at 0.5 nM. For the same molecule, the “% of activation of PPARγ” value at PPARγ receptors [2] is listed as 100%.
